Measurements as given in PubChem BioAssay (NCI).
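Here, GI50 denotes the concentration required for 50% inhibition of growth. At the TGI there is no net growth.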

Assays:
Assay in all cases: NCI tumour cell line growth inhibition, 384-well format
A498 renal = tested on: A498 renal
A549 NSCLC = tested on: A549 NSCLC
ACHN renal = tested on: ACHN renal
BT-549 breast = tested on: BT-549 breast
COLO 205 colon = tested on: COLO 205 colon
DU-145 prostate = tested on: DU-145 prostate
EKVX NSCLC = tested on: EKVX NSCLC
HCC-2998 colon = tested on: HCC-2998 colon
HCT-116 colon = tested on: HCT-116 colon
HCT-15 colon = tested on: HCT-15 colon
HL-60(TB) leukemia = tested on: HL-60(TB) leukemia
HOP-62 NSCLC = tested on: HOP-62 NSCLC
HOP-92 NSCLC = tested on: HOP-92 NSCLC
IGROV1 ovarian = tested on: IGROV1 ovarian
KM12 colon = tested on: KM12 colon
LOX IMVI melanoma = tested on: LOX IMVI melanoma
M14 melanoma = tested on: M14 melanoma
MALME-3M melanoma = tested on: MALME-3M melanoma
MCF7 breast = tested on: MCF7 breast
MDA-MB-231 breast = tested on: MDA-MB-231 breast
MDA-MB-435 melanoma = tested on: MDA-MB-435 melanoma
MDA-MB-468 breast = tested on: MDA-MB-468 breast
MOLT-4 leukemia = tested on: MOLT-4 leukemia
NCI-H226 lung = tested on: NCI-H226 lung
NCI-H23 lung = tested on: NCI-H23 lung
NCI-H322M lung = tested on: NCI-H322M lung
NCI-H460 NSCLC = tested on: NCI-H460 NSCLC
NCI-H522 lung = tested on: NCI-H522 lung
NCI/ADR-RES ovarian = tested on: NCI/ADR-RES ovarian
OVCAR-3 ovarian = tested on: OVCAR-3 ovarian
OVCAR-4 ovarian = tested on: OVCAR-4 ovarian
OVCAR-5 ovarian = tested on: OVCAR-5 ovarian
PC-3 prostate = tested on: PC-3 prostate
RPMI-8226 leukemia = tested on: RPMI-8226 leukemia
RXF 393 renal = tested on: RXF 393 renal
SF-268 CNS = tested on: SF-268 CNS
SF-295 CNS = tested on: SF-295 CNS
SF-539 CNS = tested on: SF-539 CNS
SK-MEL-28 melanoma = tested on: SK-MEL-28 melanoma
SK-MEL-5 melanoma = tested on: SK-MEL-5 melanoma
SN12C renal = tested on: SN12C renal
SNB-19 CNS = tested on: SNB-19 CNS
SNB-75 CNS = tested on: SNB-75 CNS
SR leukemia = tested on: SR leukemia
T-47D breast = tested on: T-47D breast
TK-10 renal = tested on: TK-10 renal
U251 glioblastoma = tested on: U251 glioblastoma
UACC-257 melanoma = tested on: UACC-257 melanoma
UACC-62 melanoma = tested on: UACC-62 melanoma

Compound: CCNC(=O)C[C@@H]1N=C(c2ccc(Cl)cc2)c2cc(OC)ccc2-n2c(C)nnc21
- GI50 (A498 renal): 0.662 µM
- TGI (A498 renal): 81.7 µM
- GI50 (A549 NSCLC): 7.42 µM
- TGI (A549 NSCLC): > 100 µM
- GI50 (ACHN renal): 3.55 µM
- TGI (ACHN renal): > 100 µM
- GI50 (BT-549 breast): 0.375 µM
- TGI (BT-549 breast): 23.3 µM
- GI50 (COLO 205 colon): 0.496 µM
- TGI (COLO 205 colon): 15.6 µM
- GI50 (DU-145 prostate): 12.8 µM
- TGI (DU-145 prostate): > 100 µM
- GI50 (EKVX NSCLC): 25.4 µM
- TGI (EKVX NSCLC): > 100 µM
- GI50 (HCC-2998 colon): 0.0861 µM
- TGI (HCC-2998 colon): 10.8 µM
- GI50 (HCT-116 colon): 4.23 µM
- TGI (HCT-116 colon): > 100 µM
- GI50 (HCT-15 colon): 0.613 µM
- TGI (HCT-15 colon): 15 µM
- GI50 (HL-60(TB) leukemia): 0.0257 µM
- TGI (HL-60(TB) leukemia): 0.131 µM
- GI50 (HOP-62 NSCLC): 0.246 µM
- TGI (HOP-62 NSCLC): 13.8 µM
- GI50 (HOP-92 NSCLC): 26.4 µM
- TGI (HOP-92 NSCLC): > 100 µM
- GI50 (IGROV1 ovarian): 0.394 µM
- TGI (IGROV1 ovarian): 16.7 µM
- GI50 (KM12 colon): 5.56 µM
- TGI (KM12 colon): > 100 µM
- GI50 (LOX IMVI melanoma): 0.196 µM
- TGI (LOX IMVI melanoma): 0.551 µM
- GI50 (M14 melanoma): 2.35 µM
- TGI (M14 melanoma): 55.2 µM
- GI50 (MALME-3M melanoma): 12.3 µM
- TGI (MALME-3M melanoma): 65.9 µM
- GI50 (MCF7 breast): < 0.01 µM
- TGI (MCF7 breast): > 100 µM
- GI50 (MDA-MB-231 breast): 5.87 µM
- TGI (MDA-MB-231 breast): > 100 µM
- GI50 (MDA-MB-435 melanoma): 8.67 µM
- TGI (MDA-MB-435 melanoma): 77.6 µM
- GI50 (MDA-MB-468 breast): 8.18 µM
- TGI (MDA-MB-468 breast): > 100 µM
- GI50 (MOLT-4 leukemia): 0.599 µM
- TGI (MOLT-4 leukemia): 15.7 µM
- GI50 (NCI-H226 lung): 1.63 µM
- TGI (NCI-H226 lung): 27.7 µM
- GI50 (NCI-H23 lung): 2.77 µM
- TGI (NCI-H23 lung): > 100 µM
- GI50 (NCI-H322M lung): 0.62 µM
- TGI (NCI-H322M lung): 34.6 µM
- GI50 (NCI-H460 NSCLC): 4.05 µM
- TGI (NCI-H460 NSCLC): > 100 µM
- GI50 (NCI-H522 lung): 0.213 µM
- TGI (NCI-H522 lung): 5.39 µM
- GI50 (NCI/ADR-RES ovarian): 11.4 µM
- TGI (NCI/ADR-RES ovarian): 36.2 µM
- GI50 (OVCAR-3 ovarian): 0.324 µM
- TGI (OVCAR-3 ovarian): 14.8 µM
- GI50 (OVCAR-4 ovarian): 0.137 µM
- TGI (OVCAR-4 ovarian): 0.899 µM
- GI50 (OVCAR-5 ovarian): 0.296 µM
- TGI (OVCAR-5 ovarian): 18.7 µM
- GI50 (PC-3 prostate): 0.714 µM
- TGI (PC-3 prostate): > 100 µM
- GI50 (RPMI-8226 leukemia): 0.0747 µM
- TGI (RPMI-8226 leukemia): 0.992 µM
- GI50 (RXF 393 renal): 26 µM
- TGI (RXF 393 renal): > 100 µM
- GI50 (SF-268 CNS): 22.5 µM
- TGI (SF-268 CNS): > 100 µM
- GI50 (SF-295 CNS): 21.6 µM
- TGI (SF-295 CNS): > 100 µM
- GI50 (SF-539 CNS): 2.25 µM
- TGI (SF-539 CNS): > 100 µM
- GI50 (SK-MEL-28 melanoma): 14.1 µM
- TGI (SK-MEL-28 melanoma): > 100 µM
- GI50 (SK-MEL-5 melanoma): 0.492 µM
- TGI (SK-MEL-5 melanoma): 18.2 µM
- GI50 (SN12C renal): 0.742 µM
- TGI (SN12C renal): > 100 µM
- GI50 (SNB-19 CNS): 1.63 µM
- TGI (SNB-19 CNS): > 100 µM
- GI50 (SNB-75 CNS): 28.3 µM
- TGI (SNB-75 CNS): > 100 µM
- GI50 (SR leukemia): < 0.01 µM
- TGI (SR leukemia): 58 µM
- GI50 (T-47D breast): 15.4 µM
- TGI (T-47D breast): > 100 µM
- GI50 (TK-10 renal): 0.48 µM
- TGI (TK-10 renal): 28.6 µM
- GI50 (U251 glioblastoma): 9.26 µM
- TGI (U251 glioblastoma): > 100 µM
- GI50 (UACC-257 melanoma): 0.423 µM
- TGI (UACC-257 melanoma): 30.3 µM
- GI50 (UACC-62 melanoma): < 0.01 µM
- TGI (UACC-62 melanoma): > 100 µM
